Data published in EP4553080A1, “NUCLEOSIDE DERIVATIVES AS ANTIVIRAL AGENTS AGAINST CORONAVIRUSES” (Ustav Organicke Chemie a Biochemie AV CR, v.v.i., priority 2023, dated 2025).

Molecular target: nsp14 methyltransferase from SARS-CoV-2 (Severe acute respiratory syndrome coronavirus 2, UniProt P0DTD1)
Assay: Nsp14 MTase activity inhibition in vitro (EchoMS assay)
Type: biochemical
Conditions: recombinant nsp14 protein expressed in E. coli; dose-response curve

Row | Structure (SMILES) | IC50 [nM]
1 | Cc1noc(-c2ccccc2)c1CSC[C@H]1O[C@@H](n2cc(-c3ccc(C#N)cc3)c3c(N)ncnc32)[C@H](O)[C@@H]1O [Compound 143b, 4-(4-Amino-7-((2R,3R,4S,5S)-3,4-dihydroxy-5-((((3-methyl-5-phenylisoxazol-4-yl)methyl)thio)methyl)tetrahydrofuran-2-yl)-7H-pyrrolo[2,3-d]pyrimidin-5-yl)benzonitrile] | 10 to 30
2 | Cc1noc(-c2ccccc2)c1CSC[C@H]1O[C@@H](n2cc(-c3ccccc3)c3c(N)ncnc32)[C@H](O)[C@@H]1O [Compound 149, (2R,3R,4S,5S)-2-(4-Amino-5-phenyl-7H-pyrrolo[2,3-d]pyrimidin-7-yl)-5-((((3-methyl-5-phenylisoxazol-4-yl)methyl)thio)methyl)tetrahydrofuran-3,4-diol] | 30 to 100
3 | Cc1noc(-c2ccccc2)c1CSC[C@H]1O[C@@H](n2cc(-c3ccc([N+](=O)[O-])nc3)c3c(N)ncnc32)[C@H](O)[C@@H]1O [Compound 152, (2R,3R,4S,5S)-2-(4-Amino-5-(6-nitropyridin-3-yl)-7H-pyrrolo[2,3-d]pyrimidin-7-yl)-5-((((3-methyl-5-phenylisoxazol-4-yl)methyl)thio)methyl)tetrahydrofuran-3,4-diol] | 30 to 100
4 | Cc1noc(-c2ccccc2)c1CSC[C@H]1O[C@@H](n2ccc3c(N)nc(Cl)nc32)[C@H](O)[C@@H]1O [Compound 204, (2R,3R,4S,5S)-2-(4-Amino-2-chloro-7H-pyrrolo[2,3-d]pyrimidin-7-yl)-5-((((3-methyl-5-phenylisoxazol-4-yl)methyl)thio)methyl)tetrahydrofuran-3,4-diol] | 10 to 30
5 | Cc1noc(-c2ccccc2)c1CSC[C@H]1O[C@@H](n2ccc3c(N)nc(F)nc32)[C@H](O)[C@@H]1O [Compound 198, (2R,3R,4S,5S)-2-(4-Amino-2-fluoro-7H-pyrrolo[2,3-d]pyrimidin-7-yl)-5-((((3-methyl-5-phenylisoxazol-4-yl)methyl)thio)methyl)tetrahydrofuran-3,4-diol] | 30 to 100
6 | Cc1noc(-c2ccccc2)c1CSC[C@H]1O[C@@H](n2cc(/C=C/c3ccccc3)c3c(N)ncnc32)[C@H](O)[C@@H]1O [Compound 181b, (2R,3R,4S,5S)-2-(4-Amino-5-((E)-styryl)-7H-pyrrolo[2,3-d]pyrimidin-7-yl)-5-((((3-methyl-5-phenylisoxazol-4-yl)methyl)thio)methyl)tetrahydrofuran-3,4-diol] | 100 to 500
7 | Cc1csc(-c2ccccc2)c1CSC[C@H]1O[C@@H](n2ccc3c(N)ncnc32)[C@H](O)[C@@H]1O [Compound 53c, (2R,3R,4S,5S)-2-(4-Amino-7H-pyrrolo[2,3-d]pyrimidin-7-yl)-5-((((4-methyl-2-phenylthiophen-3-yl)methyl)thio)methyl)tetrahydrofuran-3,4-diol] | 100 to 500
8 | Cc1noc(-c2ccc(N)cc2)c1CSC[C@H]1O[C@@H](n2cc(-c3ccc(C#N)cc3)c3c(N)ncnc32)[C@H](O)[C@@H]1O [Compound 234b, 4-(4-Amino-7-((2R,3R,4S,5S)-5-((((5-(4-aminophenyl)-3-methylisoxazol-4-yl)methyl)thio)methyl)-3,4-dihydroxytetrahydrofuran-2-yl)-7H-pyrrolo[2,3-d]pyrimidin-5-yl)benzonitrile] | 10 to 30
9 | Cc1noc(-c2ccccc2)c1CSC[C@H]1O[C@@H](n2cc(C#Cc3cnc4ccccc4n3)c3c(N)ncnc32)[C@H](O)[C@@H]1O [Compound 177b, (2R,3R,4S,5S)-2-(4-Amino-5-(quinoxalin-2-ylethynyl)-7H-pyrrolo[2,3-d]pyrimidin-7-yl)-5-((((3-methyl-5-phenylisoxazol-4-yl)methyl)thio)methyl)tetrahydrofuran-3,4-diol] | 30 to 100
